One series has as its system A431. Kind of series: Cell anti-proliferation experiment (CTG). The following applies: Homo sapiens, A431 (wild-type EGFR). Format: cell-based. The method, boiled down:
(§1)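 Cells were seeded at 1500–2500/well and dosed after ~24 h with compound in a 1:4 dilution series up to 10,000 nM, in triplicate. Viability was read by CTG luminescence after 72 h, normalized to the 0.1% DMSO control and medium blank, and IC50 was obtained by curve fitting.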

The test system of a further series is A549. Nature of the series: Cell anti-proliferation experiment (CTG). Format: cell-based. To be noted: Homo sapiens, A549 (wild-type EGFR). The method, boiled down: as §1
In series [1] the test system is Baf3-19del- T790M -C797S (Baf3-DTC). Kind of series: Cell anti-proliferation experiment (CTG). Format: cell-based. The method, boiled down: as §1
Series [2] concerns Baf3-L858R-T790M - C797S (Baf3-LTC). Kind of series: Cell anti-proliferation experiment (CTG). Format: cell-based. The method, boiled down: as §1
A further series concerns H1975. Nature of the series: Cell anti-proliferation experiment (CTG). Format: cell-based. To be noted: Homo sapiens, H1975 (EGFR T790M/L858R). In outline:
as §1

A further series deals with HCC827. Nature of the series: Cell anti-proliferation experiment (CTG). Format: cell-based. The following applies: Homo sapiens, HCC827 (exon 19 deletion). In outline:
as §1

Another series has as its system PC-9. Nature of the series: Cell anti-proliferation experiment (CTG). Format: cell-based. The following applies: Homo sapiens, PC-9 (EGFR exon 19 deletion). The method, boiled down: as §1
Series [3] can be described thus: Pharmacokinetic test of CD-1 mice. Format: in vivo. On the set-up: AUC(0-t) / AUC(0-inf): concentration or dose not given beside the values. To be noted: male CD-1 mice, single oral gavage (PO), plasma. Here is the method:
Plasma was collected from male CD-1 mice after a single gavage administration of the test substance. The plasma was then analyzed to calculate pharmacokinetic parameters.
The solvent is 5% DMSO + 10% Solutol HS-15 + 85% Saline.
Formulation preparation process: Accurately weighed the compound powder, added appropriate volumes of DMSO, Solutol and physiological saline in sequence, and vortexed sonicate at each step to finally form a homogeneous formulation solution.
Experimental animals were housed in the SPF-grade animal facility of Suzhou Xihua New Drug Development Co., Ltd. (License No.: SYXK(Su)2021-0019). Animals were fed normally for at least 3 days after purchase before the experiment, and each mouse was marked with a tail tag. Animals in the oral administration group were fasted overnight the day before administration, and were resumed feeding 4 hours later, with free access to water. Table 4. Sources and Number of Experimental Animals […]
Before administration, checked the state of the administration formulation and ensured its homogeneity by vortexing, stirring or shaking. Calculated the theoretical administration volume for each CD-1 mouse in each group according to the following formula. Theoretical administration volume (mL); = (Dose (mg⋅kg^−1))/(formulation concentration (mg⋅mL^−1)) × animal body weight (kg) [formula]
Table 5 Sample Collection Information
The collected blood was placed in test tubes containing the anticoagulant EDTA-K2 (15 % EDTA-K2 solution), stored on moist ice, and centrifuged within 45 min (1,500 g, 2-8 °C, 10 min). Plasma was then collected. The plasma was stored in pre-chilled centrifuge tubes, flash-frozen on dry ice, and subsequently stored in an ultra-low temperature freezer at -60 °C or lower until shipment.
A quantitative detection method for the analyte was established using Shimadzu liquid chromatography and Triple Quad™ 6500+AB mass spectrometry. The concentration of the parent drug in plasma was analyzed. The analytical results were controlled for variation using quality control samples, with the accuracy of the quality control samples expected to be between 80% and 120%.
The main pharmacokinetic parameters were calculated using a non-compartmental model in Winnonlin Phoenix software. These parameters included the area under the curve (AUC(0-t) and AUC(0-∞)), elimination half-life (T1/2), maximum plasma concentration (Cmax ), and time to reach maximum plasma concentration (Tmax).

Setting [4] is: A-431, 72 h, number after the class symbol.
Setting [5] is: A549, 72 h, number after the class symbol.
[6] abbreviates: 72 h, number after the class symbol.
[7] abbreviates: NCI-H1975, 72 h, number after the class symbol.
[8] abbreviates: HCC827, 72 h, number after the class symbol.
Setting [9] is: PC-9, 72 h, number after the class symbol.

Where only a bound is given, the exact number is not on record here.

For the molecule `COc1cc(N2CCC(CN3CCN(c4ccc5c(c4)C(=O)N(C4CCC(=O)NC4=O)C5=O)CC3)CC2)c(-c2cnn(C)c2)cc1Nc1ncc(Br)c(Nc2ccc(C3CC3)cc2P(C)(C)=O)n1` (stereo not drawn) [DZL-1, reference compound], the half-inhibitory concentration (IC50) in the series with A431 (A-431, 72 h, class symbol) is greater than 1 µM; in the series with A431 (setting [4]), greater than 5 µM; in the series on A549 (A549, 72 h, class symbol), greater than 1 µM; in the series with A549 (setting [5]), greater than 5 µM; in series [1] (72 h, class symbol), 0.01 to 0.1 µM; in series [1] (setting [6]) it was 0.0145 µM. In addition, the IC50 is 0.01 to 0.1 µM in series [2] (72 h, class symbol); 0.0136 µM in series [2] (setting [6]); 0.01 to 0.1 µM with H1975 (NCI-H1975, 72 h, class symbol); 0.0548 µM in the series on H1975 (setting [7]); 0.1 to 1 µM in the series with HCC827 (HCC827, 72 h, class symbol); 0.105 µM in the series with HCC827 (setting [8]). The concentration for half-maximal inhibition (IC50) is 0.1 to 1 µM in the series on PC-9 (PC-9, 72 h, class symbol) and 0.205 µM in the series with PC-9 (setting [9]).
In the case of `CCc1cc(Nc2ncc(Cl)c(Nc3ccccc3P(C)(C)=O)n2)c(OC)cc1N1CCN(C(=O)CN2CCC(c3cc4c(cc3F)c(N3CCC(=O)NC3=O)nn4C)C(F)(F)C2)CC1` (stereo not drawn) [TC-157], the 50% inhibitory concentration (IC50) in the series on A431 (A-431, 72 h, class symbol) is greater than 1 µM; with A431 (setting [4]) it was 1.65 µM; with A549 (A549, 72 h, class symbol), 0.1 to 1 µM; with A549 (setting [5]), 0.948 µM; in series [1] (72 h, class symbol), less than 0.01 µM; in series [1] (setting [6]) it was 0.0041 µM. Moreover, the IC50 was less than 0.01 µM in series [2] (72 h, class symbol); 0.0041 µM in series [2] (setting [6]); 0.01 to 0.1 µM with H1975 (NCI-H1975, 72 h, class symbol); 0.024 µM with H1975 (setting [7]); 0.1 to 1 µM with HCC827 (HCC827, 72 h, class symbol); 0.812 µM in the series on HCC827 (setting [8]). For the same molecule, the IC50 was 0.1 to 1 µM in the series on PC-9 (PC-9, 72 h, class symbol) and 0.349 µM in the series on PC-9 (setting [9]).
As for `CCc1cc(Nc2ncc(Cl)c(Nc3ccccc3P(C)(C)=O)n2)c(OC)cc1N1CCN(C(=O)CN2CCC(c3cc4c(cc3F)c(N3CCC(=O)NC3=O)nn4C)CC2)CC1` [TC-213], the IC50 in the series with A431 (A-431, 72 h, class symbol) was greater than 1 µM; in the series with A431 (setting [4]), 1.34 µM; with A549 (A549, 72 h, class symbol), greater than 1 µM; with A549 (setting [5]), 1.77 µM; in series [1] (72 h, class symbol) it was less than 0.01 µM; in series [1] (setting [6]), 0.0089 µM. For the same molecule, the concentration for half-maximal inhibition (IC50) was less than 0.01 µM in series [2] (72 h, class symbol); 0.0008 µM in series [2] (setting [6]); 0.01 to 0.1 µM with H1975 (NCI-H1975, 72 h, class symbol); 0.0359 µM with H1975 (setting [7]); 0.01 to 0.1 µM in the series with HCC827 (HCC827, 72 h, class symbol); 0.053 µM in the series on HCC827 (setting [8]). The IC50 was 0.1 to 1 µM with PC-9 (PC-9, 72 h, class symbol) and 0.505 µM in the series on PC-9 (setting [9]).
With `CCc1cc(Nc2ncc(Cl)c(Nc3ccccc3C(=O)NC)n2)c(OC)cc1N1CCN(C(=O)CN2CCC(c3cc4c(cc3F)c(N3CCC(=O)NC3=O)nn4C)C(F)(F)C2)CC1` (stereo not drawn) [TA-003], the IC50 in the series on A431 (A-431, 72 hours, class symbol) is greater than 1 µM; with A549 (72 hours, class symbol), greater than 1 µM; in series [1] (72 hours, class symbol) it was 0.1 to 1 µM; in series [2] (72 hours, class symbol), 0.1 to 1 µM; with H1975 (NCI-H1975, 72 hours, class symbol), less than 0.01 µM; in the series with HCC827 (72 hours, class symbol), greater than 1 µM. Further, the IC50 in the series on PC-9 (72 hours, class symbol) is greater than 1 µM. Moreover, in series [3], the HL_ stood at 2.45 h. The molecule further had an AUC(0-inf) in series [3] (mouse) of 20700 ng·h/mL. The AUC(0-t) in series [3] (mouse) came to 20600 ng·h/mL. The molecule further came in with a Cmax in series [3] (mouse) of 3410 ng/mL. In series [3] (mouse), this molecule yielded an MRT last of 5.11 h. The Tmax in series [3] (mouse) amounted to 4 h.
Consider `CCc1cc(Nc2ncc(Cl)c(Nc3ccccc3P(C)(C)=O)n2)c(OC)cc1N1CC2(CCN(C(=O)CN3CCC(c4cc5c(cc4F)c(N4CCC(=O)NC4=O)nn5C)C(F)(F)C3)CC2)C1` (stereo not drawn) [TA-023], for which the IC50 in the series with A431 (A-431, 72 h, class symbol) was greater than 1 µM; with A431 (setting [4]) it was 1.18 µM; with A549 (A549, 72 h, class symbol) it was greater than 1 µM; with A549 (setting [5]), 1.26 µM; in series [1] (72 h, class symbol), 0.1 to 1 µM; in series [1] (setting [6]) it was 0.202 µM. For the same molecule, the IC50 in series [2] (72 h, class symbol) was less than 0.01 µM; in series [2] (setting [6]), 0.0084 µM; in the series on H1975 (NCI-H1975, 72 h, class symbol), 0.01 to 0.1 µM; in the series on H1975 (setting [7]) it was 0.0147 µM; in the series on HCC827 (HCC827, 72 h, class symbol), 0.1 to 1 µM; in the series on HCC827 (setting [8]) it was 0.593 µM. In addition, the concentration for half-maximal inhibition (IC50) in the series on PC-9 (PC-9, 72 h, class symbol) is 0.1 to 1 µM; with PC-9 (setting [9]) it was 0.461 µM.

For orientation: IC50 means the concentration that inhibits the measured activity by half. Usually AUC(0-inf) stands for total exposure, with the tail of the curve extrapolated. Broadly, the AUC(0-t) is exposure summed from dosing to a finite time, without extrapolation to infinity. What is called Cmax is the peak of the concentration-time curve. The MRT last is the average time that molecules of a dose stay in the body. Broadly, the Tmax is the time at which the peak concentration occurs.
